# Measured values: patent US7608627B2, “6-azaindole compound” (Takeda Pharmaceutical Company Limited, priority 2005, dated 2009)
# Structures can show the parent of a compound that is named as a salt.
# Molecular target: T1, IKKβ (Homo sapiens, UniProt O14920)
# T1 construct: made in house; host or cells: Sf-21 insect cells, recombinant baculovirus BAC-IKKB (pFASTBAC1)
# T1 sequence (O14920 1-756): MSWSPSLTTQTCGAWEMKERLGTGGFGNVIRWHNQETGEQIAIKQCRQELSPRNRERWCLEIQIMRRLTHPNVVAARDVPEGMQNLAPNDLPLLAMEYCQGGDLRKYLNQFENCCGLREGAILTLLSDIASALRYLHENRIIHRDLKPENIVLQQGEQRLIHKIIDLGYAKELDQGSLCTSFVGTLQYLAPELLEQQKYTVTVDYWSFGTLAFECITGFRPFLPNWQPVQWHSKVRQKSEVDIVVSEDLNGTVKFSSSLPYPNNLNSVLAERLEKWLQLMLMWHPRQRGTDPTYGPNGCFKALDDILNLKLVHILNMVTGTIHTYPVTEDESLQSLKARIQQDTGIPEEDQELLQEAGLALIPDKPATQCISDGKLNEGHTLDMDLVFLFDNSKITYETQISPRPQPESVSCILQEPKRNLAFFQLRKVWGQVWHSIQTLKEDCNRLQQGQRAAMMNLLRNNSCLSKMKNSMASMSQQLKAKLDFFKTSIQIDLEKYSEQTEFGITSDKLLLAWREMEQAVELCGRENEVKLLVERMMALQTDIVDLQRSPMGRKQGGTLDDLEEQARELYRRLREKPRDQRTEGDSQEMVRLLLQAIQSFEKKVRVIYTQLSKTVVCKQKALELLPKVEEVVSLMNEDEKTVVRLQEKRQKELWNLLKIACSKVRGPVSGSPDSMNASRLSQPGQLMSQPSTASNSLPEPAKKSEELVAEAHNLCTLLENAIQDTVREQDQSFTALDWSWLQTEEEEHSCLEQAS
# Assay: Determination of IKKβ inhibitory activity (32P uptake into IκBα substrate)
# Assay type: biochemical
# Conditions: active IKKβ 10 ng, IκBα substrate protein, [γ-32P]ATP, 30° C. for 60 min; 50% inhibition of 32P uptake by the acid insoluble fraction
# Protocol: To a reaction solution (37.5 μl, 25 mM HEPES (pH 7.5), 10 mM magnesium acetate) containing active IKKβ (10 ng) obtained in Reference Example 3A and 2.5 μg of IκBα substrate protein solution was added a test compound (2.5 μl) dissolved in DMSO, and the mixture was incubated at 30° C. for 5 min. To the obtained mixture was added 10 μl of ATP solution (2.5 μM ATP, 0.01 μCi [γ-^32P]ATP) and the mixture was allowed to react at 30° C. for 60 min. Then 20% TCA solution (50 μl) was added thereto to stop the reaction. The reaction solution was left standing at 4° C. for 20 min. and acid insoluble fraction was transferred to a GF/C filter (PACKARD JAPAN KK) using a cell harvester (PACKARD JAPAN KK) and washed with 250 mM phosphoric acid solution. The plate after washing was dried at 45° C. for 60 min., 40 μl of MicroSinti 0 (PACKARD JAPAN KK) was added and the radioactivity was determined using TopCount (PACKARD JAPAN KK). The concentration (IC50) of the test compound necessary for 50% inhibition of the amount of ^32P uptake by the acid insoluble fraction was calculated using PRISM 3.0 (GraphPad Software, Inc.).
row,SMILES,IC50 [nM]
1,"c1ccc(C(=NOC2CCNC2)c2cc3ccncc3[nH]2)cc1 (stereo not shown) [Example 91, Phenyl (1H-pyrrolo[2,3-c]pyridin-2-yl)methanone O-pyrrolidin-3-yloxime dihydrochloride]",1700

# Test system: not given
# Assay: not given
# Conditions: not given
row,SMILES,melting point
1,"O=C(NC(c1ccccc1)c1cc2ccncc2[nH]1)c1cccnc1 (stereo not shown) [Example 43, N-[Phenyl(1H-pyrrolo[2,3-c]pyridin-2-yl)methyl]nicotinamide]",178 to 188 °C
2,"OC(c1ccccc1)c1cc2ccnc(N(Cc3ccccc3)Cc3ccccc3)c2[nH]1 (stereo not shown) [Example 46, [7-(Dibenzylamino)-1H-pyrrolo[2,3-c]pyridin-2-yl](phenyl)methanol]",53 to 61 °C
3,"O=C(c1ccccc1)c1cc2ccnc(N(Cc3ccccc3)Cc3ccccc3)c2[nH]1 [Example 47, [7-(Dibenzylamino)-1H-pyrrolo[2,3-c]pyridin-2-yl](phenyl)methanone]",122 to 124 °C
4,"O=C(NC(c1ccccc1)c1cc2ccncc2[nH]1)c1ccncc1 (stereo not shown) [Example 49, N-[Phenyl (1H-pyrrolo[2,3-c]pyridin-2-yl)methyl]isonicotinamide]",182 to 192 °C
5,"O=C(NC(c1ccccc1)c1cc2ccncc2[nH]1)c1ccccn1 (stereo not shown) [Example 50, N-[Phenyl (1H-pyrrolo[2,3-c]pyridin-2-yl)methyl]-2-pyridinecarboxamide]",102 to 110 °C
6,"O=C(NC(c1ccccc1)c1cc2ccncc2[nH]1)c1ccccc1 (stereo not shown) [Example 51, N-[Phenyl(1H-pyrrolo[2,3-c]pyridin-2-yl)methyl]benzamide]",206 to 208 °C
7,"OC(c1ccccc1)c1cc2ccncc2[nH]1 (stereo not shown) [Example 52, Phenyl(1H-pyrrolo[2,3-c]pyridin-2-yl)methanol]",178 to 180 °C
8,"CC(C)(C)OC(=O)CO/N=C(\c1ccccc1)c1cc2ccncc2[nH]1 [Example 58, tert-Butyl[[[phenyl(1H-pyrrolo[2,3-c]pyridin-2-yl)methylene]amino]oxy]acetate]",47 to 52 °C
9,"CC(C)(C)OC(=O)NCCO/N=C(\c1ccccc1)c1cc2ccncc2[nH]1 [Example 60, tert-Butyl 2-[[[phenyl(1H-pyrrolo[2,3-c]pyridin-2-yl)methylene]amino]oxy]ethylcarbamate]",84 to 88 °C
10,"O=C(O)CO/N=C(\c1ccccc1)c1cc2ccncc2[nH]1 [Example 66, [[[Phenyl(1H-pyrrolo[2,3-c]pyridin-2-yl)methylene]amino]oxy]acetic acid]",68 to 73 °C
11,Cl.NCCO/N=C(\c1ccccc1)c1cc2ccncc2[nH]1 [Example 67],176 to 184 °C (dec.)
12,"CC(=O)c1cc2ccncc2[nH]1 [Example 70, 1-(1H-Pyrrolo[2,3-c]pyridin-2-yl)ethanone]",236 to 242 °C (dec.)
13,"O=C(c1ccccc1)c1cc2cc(Cl)ncc2[nH]1 [Example 73, (5-Chloro-1H-pyrrolo[2,3-c]pyridin-2-yl)(phenyl)methanone]",194 to 197 °C
14,"CC(C)(C)OC(=O)NCCCO/N=C(\c1ccccc1)c1cc2ccncc2[nH]1 [Example 76, tert-Butyl 3-[[[phenyl(1H-pyrrolo[2,3-c]pyridin-2-yl)methylene]amino]oxy]propylcarbamate]",52 to 58 °C
15,"CC(C)C(O)c1cc2ccncc2[nH]1 (stereo not shown) [Example 78, 2-Methyl-1-(1H-pyrrolo[2,3-c]pyridin-2-yl)-1-propanol]",140 to 144 °C
16,"CC(C)CC(O)c1cc2ccncc2[nH]1 (stereo not shown) [Example 79, 3-Methyl-1-(1H-pyrrolo[2,3-c]pyridin-2-yl)-1-butanol]",182 to 189 °C (dec.)
17,"CC(C)C(=O)c1cc2ccncc2[nH]1 [Example 80, 2-Methyl-1-(1H-pyrrolo[2,3-c]pyridin-2-yl)-1-propanone]",224 to 228 °C
18,"CC(C)CC(=O)c1cc2ccncc2[nH]1 [Example 81, 3-Methyl-1-(1H-pyrrolo[2,3-c]pyridin-2-yl)-1-butanone]",215 to 218 °C

row,SMILES,melting point
1,"OC(CCc1ccccc1)c1cc2ccncc2[nH]1 (stereo not shown) [Example 83, 3-Phenyl-1-(1H-pyrrolo[2,3-c]pyridin-2-yl)propan-1-ol]",162 to 166 °C
2,"OC(Cc1ccccc1)c1cc2ccncc2[nH]1 (stereo not shown) [Example 85, 2-Phenyl-1-(1H-pyrrolo[2,3-c]pyridin-2-yl)ethanol]",169 to 172 °C (dec.)
3,"O=C(CCc1ccccc1)c1cc2ccncc2[nH]1 [Example 89, 3-Phenyl-1-(1H-pyrrolo[2,3-c]pyridin-2-yl)propan-1-one]",246 to 250 °C
4,"CC(C)(C)OC(=O)N1CCC(ON=C(c2ccccc2)c2cc3ccncc3[nH]2)C1 (stereo not shown) [Example 90, tert-Butyl 3-[[[phenyl(1H-pyrrolo[2,3-c]pyridin-2-yl)methylene]amino]oxy]pyrrolidine-1-carboxylate]",80 to 82 °C
5,Cl.NCCO/N=C(\c1ccccc1)c1cc2ccncc2[nH]1 [Example 95],161 to 165 °C (dec.)
6,"Cc1ccc(C(O)c2cc3ccncc3[nH]2)cc1 (stereo not shown) [Example 98, (4-Methylphenyl)(1H-pyrrolo[2,3-c]pyridin-2-yl)methanol]",78 to 82 °C
7,"COc1ccc(C(O)c2cc3ccncc3[nH]2)cc1 (stereo not shown) [Example 99, (4-Methoxyphenyl)(1H-pyrrolo[2,3-c]pyridin-2-yl)methanol]",183 to 185 °C (dec.)
8,"Cc1ccc(C(=O)c2cc3ccncc3[nH]2)cc1 [Example 100, (4-Methylphenyl)(1H-pyrrolo[2,3-c]pyridin-2-yl)methanone]",264 to 268 °C (dec.)
9,"OC(c1ccc(Cl)cc1)c1cc2ccncc2[nH]1 (stereo not shown) [Example 101, (4-Chlorophenyl)(1H-pyrrolo[2,3-c]pyridin-2-yl)methanol]",176 to 180 °C
10,"COc1ccc(C(=O)c2cc3ccncc3[nH]2)cc1 [Example 102, (4-Methoxyphenyl)(1H-pyrrolo[2,3-c]pyridin-2-yl)methanone]",225 to 228 °C
11,"O=C(c1ccc(Cl)cc1)c1cc2ccncc2[nH]1 [Example 103, (4-Chlorophenyl)(1H-pyrrolo[2,3-c]pyridin-2-yl)methanone]",274 to 277 °C (dec.)
12,"OC(c1ccc(Cl)c(Cl)c1)c1cc2ccncc2[nH]1 (stereo not shown) [Example 113, (3,4-Dichlorophenyl)(1H-pyrrolo[2,3-c]pyridin-2-yl)methanol]",264 to 266 °C (dec.)
13,"OC(c1ccccn1)c1cc2ccncc2[nH]1 (stereo not shown) [Example 117, (Pyridin-2-yl)(1H-pyrrolo[2,3-c]pyridin-2-yl)methanol]",166 to 169 °C
14,CON=C(c1ccccc1)c1cc2ccncc2[nH]1.Cl [Example 120],202 to 203 °C
15,CON=C(c1ccccc1)c1cc2ccncc2[nH]1.Cl [Example 121],220 to 222 °C
16,"O=C(c1ccccn1)c1cc2ccncc2[nH]1 [Example 122, (Pyridin-2-yl)(1H-pyrrolo[2,3-c]pyridin-2-yl)methanone]",219 to 222 °C
17,"O=C(c1ccc(Cl)c(Cl)c1)c1cc2ccncc2[nH]1 [Example 127, (3,4-Dichlorophenyl)(1H-pyrrolo[2,3-c]pyridin-2-yl)methanone]",274 to 277 °C (dec.)
18,"O=C(c1ccoc1)c1cc2ccncc2[nH]1 [Example 137, 3-Furyl(1H-pyrrolo[2,3-c]pyridin-2-yl)methanone]",232 to 236 °C (dec.)
